Values quoted from earlier work, collected in patent US20040019012A1, “Ophthalmic antibiotic drug formulations containing a cyclodextrin compound and cetyl pyridinium chloride” (priority 2002, published 2004).

Columns and labels:
gram-positive organisms = details: Staphylococcus, Streptococcus, Enterococcus, Bacillus, Corynebacterium, Chlamydia, Neisseria
[1] = system: infective gram-positive bacteria; details: minimum inhibitory concentration for 90% of the target organisms

Which “antibacterial activity against gram-positive organisms” value (gram-positive organisms) does the source give for CC(=O)NC[C@H]1CN(c2ccc(N3CCOCC3)c(F)c2)C(=O)O1 [linezolid, (S)-N-[[3-[3-fluoro-4-(4-morpholinyl)phenyl]-2-oxo-5-oxazolidinyl]methyl]acetamide] here?
Its value is “strong antibacterial activity”.

What about the “practical limit of concentration in aqueous solution” value of the same compound?
The value was “about 2 mg/ml”.

And the MIC90 [1]?
Its MIC90 is “about 4 μg/ml”.
